Source: patent US6355799B1, “Substituted benzene compounds, process for their preparation, and herbicidal and defoliant compositions containing them” (ISK Americas Incorporated, priority 1997, dated 2002)

Experiments:
Type in all cases: in vivo
[1] = test system: redroot pigweed (Amaranthus retroflexus, AMARE); test: Pre-emerge test, greenhouse herbicide activity screening; conditions: pre-emerge, rated 14 days after application, 0 = no damage, 100 = complete death
Method in brief: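 Compounds in acetone were track-sprayed at 15-1000 g ai/ha (187 l/ha) on sandy loam pots: pre-emerge one day after seeding, post-emerge at 2-3 leaf stage with 0.25% v/v non-ionic surfactant. Phytotoxicity was rated 14 days later on a 0 (no damage) to 100 (complete death) scale.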

[2] = test system: barnyardgrass (Echinochloa crus-galli, ECHCG); test: as above; conditions: pre-emerge, rated 14 days after application, 0 = no damage, 100 = complete death
Method in brief: (§1)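 Visual ratings on a 0-100 scale (0 no damage, 100 all plants dead) were taken at 14 days after treatment. Rates of 15-1000 g ai/ha in acetone, 187 l/ha, were sprayed onto soil one day after planting (pre-emerge) or onto 2-3 leaf plants with 0.25% v/v surfactant (post-emerge).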

[3] = test system: common ragweed (Ambrosia artemisizfolia L., AMBEL); test: as above; conditions: pre-emerge, rated 14 days after application, 0 = no damage, 100 = complete death
Method in brief: as §1

[4] = test system: green foxtail (Setaria viridis, SETVI); test: as above; conditions: pre-emerge, rated 14 days after application, 0 = no damage, 100 = complete death
Method in brief: as §1

[5] = test system: ivyleaf morningglory (Ipomoea hederacea, IPOHE); test: as above; conditions: pre-emerge, rated 14 days after application, 0 = no damage, 100 = complete death
Method in brief: as §1

[6] = test system: johnsongrass (Sorghum halepense, SORHA); test: as above; conditions: pre-emerge, rated 14 days after application, 0 = no damage, 100 = complete death
Method in brief: as §1

[7] = test system: lambsquarters (Chenopodium album, CHEAL); test: as above; conditions: pre-emerge, rated 14 days after application, 0 = no damage, 100 = complete death
Method in brief: as §1

[8] = test system: large crabgrass (Digitaria sanguinalis, DIGSA); test: as above; conditions: pre-emerge, rated 14 days after application, 0 = no damage, 100 = complete death
Method in brief: as §1

[9] = test system: sicklepod (Cassia obtusifolia, CASOB); test: as above; conditions: pre-emerge, rated 14 days after application, 0 = no damage, 100 = complete death
Method in brief: as §1

[10] = test system: velvetleaf (Abutilon theophrasti, ABUTH); test: as above; conditions: pre-emerge, rated 14 days after application, 0 = no damage, 100 = complete death
Method in brief: as §1

[11] = test system: field corn (Zea mays L., var. Dekalb 535, CORN); test: Pre-emerge test, crop safety; conditions: pre-emerge, rated 14 days after application, 0 = no damage, 100 = complete death
Method in brief: (§2)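 Fourteen days after spraying, crop and weed injury was graded visually from 0, no effect, to 100, every plant dead. Test substances were dissolved in acetone and applied at 15–1000 g ai/ha with a flat-fan nozzle. Application was either pre-emergence, one day after sowing, or post-emergence at the 2–3 leaf stage.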

[12] = test system: upland rice (Oryza sp., var. Tebonnet, RICE); test: Pre-emerge test, crop safety; conditions: pre-emerge, rated 14 days after application, 0 = no damage, 100 = complete death
Method in brief: as §2

[13] = test system: barnyardgrass (Echinochloa crus-galli, ECHCG); test: Post-emerge test, greenhouse herbicide activity screening; conditions: phytotoxicity rating 0-100 (0 no damage, 100 complete death), 14 days after application
Method in brief: (§3)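 Rating: 0–100 visual injury, 14 DAA. Application: acetone, 187 l/ha, 15–1000 g ai/ha, flat-fan track sprayer with nozzle 40–45 cm above soil or canopy. Post-emerge runs used 0.25% v/v surfactant on 2–3 leaf plants.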

[14] = test system: common ragweed (Ambrosia artemisizfolia L., AMBEL); test: as above; conditions: phytotoxicity rating 0-100 (0 no damage, 100 complete death), 14 days after application
Method in brief: as §3

[15] = test system: ivyleaf morningglory (Ipomoea hederacea, IPOHE); test: as above; conditions: phytotoxicity rating 0-100 (0 no damage, 100 complete death), 14 days after application
Method in brief: as §3

[16] = test system: johnsongrass (Sorghum halepense, SORHA); test: as above; conditions: phytotoxicity rating 0-100 (0 no damage, 100 complete death), 14 days after application
Method in brief: as §3

[17] = test system: lambsquarters (Chenopodium album, CHEAL); test: as above; conditions: phytotoxicity rating 0-100 (0 no damage, 100 complete death), 14 days after application
Method in brief: as §3

[18] = test system: large crabgrass (Digitaria sanguinalis, DIGSA); test: as above; conditions: phytotoxicity rating 0-100 (0 no damage, 100 complete death), 14 days after application
Method in brief: as §3

[19] = test system: redroot pigweed (Amaranthus retroflexus, AMARE); test: as above; conditions: phytotoxicity rating 0-100 (0 no damage, 100 complete death), 14 days after application
Method in brief: as §3

[20] = test system: sicklepod (Cassia obtusifolia, CASOB); test: as above; conditions: phytotoxicity rating 0-100 (0 no damage, 100 complete death), 14 days after application
Method in brief: as §3

[21] = test system: velvetleaf (Abutilon theophrasti, ABUTH); test: as above; conditions: phytotoxicity rating 0-100 (0 no damage, 100 complete death), 14 days after application
Method in brief: as §3

[22] = test system: field corn (Zea mays L., var. Dekalb 535, CORN); test: Post-emerge test, crop safety; conditions: phytotoxicity rating 0-100 (0 no damage, 100 complete death), 14 days after application
Method in brief: as §1

[23] = test system: upland rice (Oryza sp., var. Tebonnet, RICE); test: Post-emerge test, crop safety; conditions: phytotoxicity rating 0-100 (0 no damage, 100 complete death), 14 days after application
Method in brief: as §1

CCc1ccc(C(=O)Nc2c(OC)c(Cl)cc(F)c2-n2c(=O)cc(C(F)(F)F)n(C)c2=O)cc1 [2-27]
Pre-emerge Herbicidal Activity AMARE (phytotoxicity rating, scale 0-100) ([1]; 63 g ai/ha): 100 | Pre-emerge Herbicidal Activity AMARE (phytotoxicity rating, scale 0-100) ([1]; 250 g ai/ha): 100 | Pre-emerge Herbicidal Activity ECHCG (phytotoxicity rating, scale 0-100) ([2]; 63 g ai/ha): 50 | Pre-emerge Herbicidal Activity ECHCG (phytotoxicity rating, scale 0-100) ([2]; 250 g ai/ha): 100 | Pre-emerge Herbicidal Activity AMBEL (phytotoxicity rating, scale 0-100) ([3]; 63 g ai/ha): 100 | Pre-emerge Herbicidal Activity AMBEL (phytotoxicity rating, scale 0-100) ([3]; 250 g ai/ha): 100 | Pre-emerge Herbicidal Activity SETVI (phytotoxicity rating, scale 0-100) ([4]; 63 g ai/ha): 100 | Pre-emerge Herbicidal Activity SETVI (phytotoxicity rating, scale 0-100) ([4]; 250 g ai/ha): 100 | Pre-emerge Herbicidal Activity IPOHE (phytotoxicity rating, scale 0-100) ([5]; 63 g ai/ha): 80 | Pre-emerge Herbicidal Activity IPOHE (phytotoxicity rating, scale 0-100) ([5]; 250 g ai/ha): 100 | Pre-emerge Herbicidal Activity SORHA (phytotoxicity rating, scale 0-100) ([6]; 63 g ai/ha): 30 | Pre-emerge Herbicidal Activity SORHA (phytotoxicity rating, scale 0-100) ([6]; 250 g ai/ha): 80 | Pre-emerge Herbicidal Activity CHEAL (phytotoxicity rating, scale 0-100) ([7]; 63 g ai/ha): 100 | Pre-emerge Herbicidal Activity CHEAL (phytotoxicity rating, scale 0-100) ([7]; 250 g ai/ha): 100 | Pre-emerge Herbicidal Activity DIGSA (phytotoxicity rating, scale 0-100) ([8]; 63 g ai/ha): 95 | Pre-emerge Herbicidal Activity DIGSA (phytotoxicity rating, scale 0-100) ([8]; 250 g ai/ha): 100 | Pre-emerge Herbicidal Activity CASOB (phytotoxicity rating, scale 0-100) ([9]; 63 g ai/ha): 60 | Pre-emerge Herbicidal Activity CASOB (phytotoxicity rating, scale 0-100) ([9]; 250 g ai/ha): 100 | Pre-emerge Herbicidal Activity ABUTH (phytotoxicity rating, scale 0-100) ([10]; 63 g ai/ha): 100 | Pre-emerge Herbicidal Activity ABUTH (phytotoxicity rating, scale 0-100) ([10]; 250 g ai/ha): 100 | Pre-emerge crop damage CORN (phytotoxicity rating, scale 0-100) ([11]; 63 g ai/ha): 20 | Pre-emerge crop damage CORN (phytotoxicity rating, scale 0-100) ([11]; 250 g ai/ha): 90 | Pre-emerge crop damage RICE (phytotoxicity rating, scale 0-100) ([12]; 63 g ai/ha): 70 | Pre-emerge crop damage RICE (phytotoxicity rating, scale 0-100) ([12]; 250 g ai/ha): 90 | Post-emerge Herbicidal Activity ECHCG ([13]; 63 g ai/ha): 0 | Post-emerge Herbicidal Activity ECHCG ([13]; 250 g ai/ha): 80 | Post-emerge Herbicidal Activity AMBEL ([14]; 63 g ai/ha): 60 | Post-emerge Herbicidal Activity AMBEL ([14]; 250 g ai/ha): 90 | Post-emerge Herbicidal Activity IPOHE ([15]; 63 g ai/ha): 90 | Post-emerge Herbicidal Activity IPOHE ([15]; 250 g ai/ha): 100 | Post-emerge Herbicidal Activity SORHA ([16]; 63 g ai/ha): 20 | Post-emerge Herbicidal Activity SORHA ([16]; 250 g ai/ha): 85 | Post-emerge Herbicidal Activity CHEAL ([17]; 63 g ai/ha): 90 | Post-emerge Herbicidal Activity CHEAL ([17]; 250 g ai/ha): 100 | Post-emerge Herbicidal Activity DIGSA ([18]; 63 g ai/ha): 10 | Post-emerge Herbicidal Activity DIGSA ([18]; 250 g ai/ha): 70 | Post-emerge Herbicidal Activity AMARE ([19]; 63 g ai/ha): 100 | Post-emerge Herbicidal Activity AMARE ([19]; 250 g ai/ha): 100 | Post-emerge Herbicidal Activity CASOB ([20]; 63 g ai/ha): 50 | Post-emerge Herbicidal Activity CASOB ([20]; 250 g ai/ha): 90 | Post-emerge Herbicidal Activity ABUTH ([21]; 63 g ai/ha): 100 | Post-emerge Herbicidal Activity ABUTH ([21]; 250 g ai/ha): 100 | Post-emerge Herbicidal Activity CORN (crop damage) ([22]; 63 g ai/ha): 50 | Post-emerge Herbicidal Activity CORN (crop damage) ([22]; 250 g ai/ha): 95 | Post-emerge Herbicidal Activity RICE (crop damage) ([23]; 63 g ai/ha): 60 | Post-emerge Herbicidal Activity RICE (crop damage) ([23]; 250 g ai/ha): 95
